{"source": "patent US20070105721A1", "about": "“Vinylogous 4-Hpyrones and their use in promoting plant growth” (priority 2003, published 2007); as to Frequency of shoot formation: tested at 0.01 ppm; as to Germination (%), Leek: tested at 0.1 ppm; as to Germination (%), Parsley: tested at 0.1 ppm; as to Number of shoots: tested at 0.01 ppm", "key": {"[1]": {"tested_on": "Passerina vulgaris", "test": "Soil-based germination trial; also: tested at 0.01 ppm", "format": "in vivo", "conditions": "SW 1/10 dilution; compound 1a 10 ppb; in soil", "experimental": "(§1) For the soil-based germination trials, four replicates of 25 seeds were soaked in the test solution (water (control) or compound 1 analogues at 10 ppb) for 24 hours, dried in a laminar flow cabinet and sowed in a germination mix. The soil-sown seeds were incubated in the dark at 20±1° C. and were scored on a weekly basis."}, "[2]": {"tested_on": "Ozothamnus cordifolium", "test": "Soil-based germination trial", "format": "in vivo", "conditions": "SW 1/10 dilution; compound 1a 10 ppb; in soil", "experimental": "as §1"}, "[3]": {"tested_on": "Brunonia australis", "test": "Soil-based germination trial", "format": "in vivo", "conditions": "SW 1/10 dilution; compound 1a 10 ppb; in soil; mean (SEM)", "experimental": "as §1"}, "[4]": {"tested_on": "Grevillea polybotrya", "test": "Soil-based germination trial", "format": "in vivo", "conditions": "SW 1/10 dilution; compound 1a 10 ppb; in soil", "experimental": "as §1"}, "[5]": {"tested_on": "Conostylis candicans", "test": "Soil-based germination trial", "format": "in vivo", "conditions": "SW 1/10 dilution; compound 1a 10 ppb; in soil", "experimental": "as §1"}, "[6]": {"tested_on": "Verticordia densiflora", "test": "Soil-based germination trial", "format": "in vivo", "conditions": "SW 1/10 dilution; compound 1a 10 ppb; in soil", "experimental": "as §1"}, "[7]": {"tested_on": "Rhodocoma arida", "test": "Soil-based germination trial", "format": "in vivo", "conditions": "SW 1/10 dilution; compound 1a 10 ppb; in soil; 1a statistically significant with p < 0.08", "experimental": "as §1"}, "[8]": {"tested_on": "Syncarpha vestita", "test": "Soil-based germination trial", "format": "in vivo", "conditions": "SW 1/10 dilution; compound 1a 10 ppb; in soil", "experimental": "as §1"}, "[9]": {"tested_on": "Scaevola thesioides", "test": "Soil-based germination trial", "format": "in vivo", "conditions": "SW 1/10 dilution; compound 1a 10 ppb; in soil", "experimental": "as §1"}, "[10]": {"tested_on": "Echinacea angustifolia", "test": "Stimulation of germination in nutriceutically important plants", "format": "in vivo", "experimental": "Three replicates of 25 seeds were placed on Petri dishes lined with seed germination paper. The Petri dishes were moistened with de-ionised water (control), 10 or 100 ppb compound 1a. Seeds were incubated in constant darkness at 18° C. Germination (radicle emergence) was recorded every 2-3 days until germination had ceased."}, "[11]": {"tested_on": "Emmenanthe penduliflora seeds", "test": "Duration of priming required to induce a germination response", "format": "in vivo", "conditions": "priming in 100 ppb compound 1a, re-drying then incubation; FIG. 5", "experimental": "To determine the duration of priming required to induce a germination response, three replicates of 20 seeds of Emmenanthe penduliflora were soaked in at 23° C. in a 100 ppb compound 1a solution for 1, 5, 10, 20, 40 or 80 min or 3, 6, 12, 24 or 48 hr. The seeds were re-dried for 24 hr at 23° C. and placed on Petri dishes lined with seed germination paper and moistened with de-ionised water. The Petri dishes were incubated at 18° C. in constant darkness. Germination (radicle emergence) was recorded every 2-3 days until germination had ceased."}, "[12]": {"tested_on": "Caulanthus heterophyllus", "test": "Germination on moist filter paper in petri dishes", "format": "in vivo", "conditions": "SW 1/10 dilution, compound 1a 10 ppb"}, "[13]": {"tested_on": "Grand Rapids Lettuce seeds (Waltham strain)", "test": "Grand Rapids bioassay", "format": "in vivo", "experimental": "Grand Rapids Lettuce seeds (Waltham strain) were obtained from R.B. Dessert Seed Co. and were frozen in sachets until use. For testing of aqueous samples, 2.5 mL of test solution was applied to three replicates of 40-50 seeds in Petri dishes (90 mm) lined with two layers of Whatman No. 1 filter paper (7 cm). Millipore filtered water (MP water) was used as a control for each experiment and dilutions of each sample were used to ensure the optimum concentration range for activity. Fractions were reconstituted to their original concentration (before fractionation) and dilutions were made using MP water. Petri dishes were sealed with a layer of plastic wrap, and stored in a light proof container. All manipulations involving the seed were carried out in a dark room and germinants, based on the appearance of a radicle, were scored after 48 hours incubation."}, "[14]": {"tested_on": "Emmenanthe penduliflora", "test": "Germination on moist filter paper in petri dishes", "format": "in vivo", "conditions": "SW 1/10 dilution, compound 1a 10 ppb"}, "[15]": {"tested_on": "Petroselinium crispum (parsley) seeds", "test": "Seed vigour enhancement", "format": "in vivo", "conditions": "100 ppb compound 1a", "experimental": "(§2) For each species, five replicates of 20 seeds were placed on Petri dishes lined with seed germination paper. The Petri dishes were moistened with de-ionised water (control) or 100 ppb compound 1a. All species were incubated in constant darkness at 12/12 hr alternating temperatures of 7/18° C., 13/26° C. or 18/33° C. Germination was scored on radicle emergence and was recorded every 2-3 days until germination had ceased."}, "[16]": {"tested_on": "Allium ampeloprasum (leek) seeds", "test": "Seed vigour enhancement", "format": "in vivo", "conditions": "100 ppb compound 1a", "experimental": "as §2"}, "[17]": {"tested_on": "Camissonia califomica", "test": "Germination on moist filter paper in petri dishes", "format": "in vivo", "conditions": "SW 1/10 dilution, compound 1a 10 ppb"}, "[18]": {"tested_on": "somatic embryos induced from shoot and coleoptile explants of Baloskion tetraphyllum", "test": "Reactivity of compound 1a with somatic tissue", "format": "cell-based", "conditions": "for Frequency of shoot formation / Number of shoots: after culturing for 20 days, compound 1a at 10 ppb", "experimental": "Seeds were cultured on PGR-free 1/2 MS medium for 4 weeks in darkness, then 3 mm coleoptile sections were removed under aseptic conditions and explanted to culture media supplemented with […] 2,4-dichlorophenoxyacetic acid and compound 1a (0, 1.0, 10, 100 ppb, respectively), with incubation in darkness at 22-25° C. Each plate was inoculated with 10 coleoptile sections and every treatment was replicated by 6 plates. […] Shoots of Baloskion tetraphyllum were cultured on 1/2 MS basal medium supplemented with […] in 16 hr light culture (PPFD of 30 μmolm^−2s^−1). After two months, whole shoots were trimmed of upper leaf and basal roots to 4 mm in length, then explanted to culture media with 1 mM 2,4-dichlorophenoxyacetic acid and supplemented with different concentrations of compound 1a (0, 1.0, 10, 100 ppb, respectively) and incubated in darkness at 22-25° C. Each plate was inoculated with 10 trimmed shoots and every treatment replicated with 4 plates. Somatic embryogenesis and plant regeneration was investigated at various intervals."}, "[19]": {"tested_on": "Nicotiana attenuate", "test": "Germination on moist filter paper in petri dishes", "format": "in vivo", "conditions": "SW 1/10 dilution, compound 1a tested at 100 ppb"}, "[20]": {"conditions": "26/13 ° C. 12/12 hr alternating"}, "[21]": {"conditions": "33/18 ° C. 12/12 hr alternating"}}, "data": [{"smiles": "Cc1c2ccocc-2oc1=O", "note": "[Compound 1a, 3-Methyl-2H-furo[2,3-c]pyran-2-one]", "values": [{"measurement": "Germination, Passerina vulgaris", "setting": "[1]", "result": "10.0 (±4.1) b %"}, {"measurement": "Germination, Ozothamnus cordifolium", "setting": "[2]", "result": "24.0 (±4.3) c %"}, {"measurement": "Germination, Brunonia australis", "setting": "[3]", "result": "25.0 (±2.5) b %"}, {"measurement": "Germination, Grevillea polybotrya", "setting": "[4]", "result": "6.0 (±2.0) c %"}, {"measurement": "Germination, Conostylis candicans", "setting": "[5]", "result": "36.0 (±6.7) b %"}, {"measurement": "Germination, Verticordia densiflora", "setting": "[6]", "result": "11.1 (±1.2) b %"}, {"measurement": "Germination, Rhodocoma arida", "setting": "[7]", "result": "*53.3 (±3.1) b %"}, {"measurement": "Germination, Syncarpha vestita", "setting": "[8]", "result": "77.5 (±6.3) b %"}, {"measurement": "Germination, Scaevola thesioides", "setting": "[9]", "result": "17.0 (±5.5) b %"}, {"measurement": "germination of Echinacea angustifolia", "setting": "[10]; 10 ppb compound 1a, mean ± standard error", "result": "58.0 ± 5.5", "unit": "b"}, {"measurement": "germination of Echinacea angustifolia", "setting": "[10]; 100 ppb compound 1a", "result": "74.0 ± 4.0", "unit": "b"}, {"measurement": "duration of priming sufficient to induce germination promotion", "setting": "[11]", "result": 1, "unit": "min"}, {"measurement": "Germination, Caulanthus heterophyllus", "setting": "[12]", "result": "97.3 (±0.7) b %"}, {"measurement": "Grand Rapids germination", "setting": "[13]; 1/1 000 000 dilution of compound 1a 1 mg/L", "result": "60.9 (2.5) %"}, {"measurement": "Grand Rapids germination", "setting": "[13]; 1/10 000 dilution (of neat SW; of compound 1a 1 mg/L)", "result": "96.4 (0.6) %"}, {"measurement": "Grand Rapids germination", "setting": "[13]; 1/10 dilution (of neat SW; of compound 1a 1 mg/L)", "result": "98.4 (0.9) %"}, {"measurement": "Grand Rapids germination", "setting": "[13]; 1/100 000 dilution of compound 1a 1 mg/L", "result": "76.9 (1.5) %"}, {"measurement": "Grand Rapids germination", "setting": "[13]; 1/100 dilution (of neat SW; of compound 1a 1 mg/L)", "result": "98.4 (1.6) %"}, {"measurement": "level at which compound 1a is active in promoting germination", "setting": "[13]; 1/100 dilution of the estimated content of neat smoke water (1 mg per 10 000 L)", "result": "10^−10 mol/L"}, {"measurement": "Grand Rapids germination", "setting": "[13]; 1/1000 dilution (of neat SW; of compound 1a 1 mg/L)", "result": "97.0 (0.5) %"}, {"measurement": "Grand Rapids germination", "setting": "[13]; Neat (neat SW; compound 1a 1 mg/L), mean (SEM)", "result": "99.4 (0.6) %"}, {"measurement": "inhibition of germination", "setting": "[13]; at higher concentrations of 1a compared to the amount in smoke water", "result": "no inhibition of germination is observed"}, {"measurement": "Germination, Grand Rapids", "setting": "[13]; compounds isolated from smoke, mean (SEM)", "result": "99.3 (0.7) %"}, {"measurement": "Germination, Emmenanthe penduliflora", "setting": "[14]", "result": "82.0 (±4.2) b %"}, {"measurement": "Germination (%), Parsley", "setting": "[15]; 18/7 ° C. 12/12 hr alternating", "result": "27.0 ± 1.9", "unit": "a %"}, {"measurement": "Germination (%), Parsley", "setting": "[15]; [20]", "result": "70 ± 5.6", "unit": "b %"}, {"measurement": "Germination (%), Parsley", "setting": "[15]; [21]", "result": "29.0 ± 6.8", "unit": "b %"}, {"measurement": "Germination (%), Leek", "setting": "[16]; 18/7 ° C. 12/12 hr alternating, mean ± standard error", "result": "97.1 ± 0.9", "unit": "a %"}, {"measurement": "Germination (%), Leek", "setting": "[16]; [20]", "result": "92.0 ± 4.3", "unit": "a %"}, {"measurement": "Germination (%), Leek", "setting": "[16]; [21]", "result": "72.0 ± 6.3", "unit": "b %"}, {"measurement": "Germination, Camissonia califomica", "setting": "[17]", "result": "85.3 (±4.8) b %"}, {"measurement": "Frequency of shoot formation", "setting": "[18]; Coleoptile explants", "result": 37.0}, {"measurement": "Number of shoots", "setting": "[18]; Coleoptile explants", "result": 4.5}, {"measurement": "Frequency of shoot formation", "setting": "[18]; Shoot explants", "result": 58.6}, {"measurement": "Number of shoots", "setting": "[18]; Shoot explants", "result": 7.8}, {"measurement": "root formation and plantlet maturation", "setting": "[18]; once somatic embryos are induced", "result": "significantly enhances"}, {"measurement": "plantlet recovery and regeneration", "setting": "[18]; somatic embryos transferred to hormone-free medium", "result": "significantly improved"}, {"measurement": "effect on the induction phase of somatic embryogenesis", "setting": "[18]; with 2,4-dichlorophenoxyacetic acid", "result": "no apparent effect"}, {"measurement": "Germination, Nicotiana attenuate", "setting": "[19]", "result": "**44.4 (±1.9) b %"}]}]}
